According to patent publication US7915270B2, “Oxazole ketones as modulators of fatty acid amide hydrolase” (The Scripps Research Institute, priority 2006, dated 2011):

How the values were obtained:
Rat FAAH = target: T1, Rat FAAH (Rattus norvegicus, UniProt P97612); test: Assay Method 2: FAAH assay, 3H-anandamide hydrolysis in cell homogenate (SK-N-MC cells transfected with rat FAAH); type: biochemical; details: 3H-AEA 80 nM, rt 1 h, pH 9
T1 construct: expressed in transfected cells
T1 sequence (P97612 1-579): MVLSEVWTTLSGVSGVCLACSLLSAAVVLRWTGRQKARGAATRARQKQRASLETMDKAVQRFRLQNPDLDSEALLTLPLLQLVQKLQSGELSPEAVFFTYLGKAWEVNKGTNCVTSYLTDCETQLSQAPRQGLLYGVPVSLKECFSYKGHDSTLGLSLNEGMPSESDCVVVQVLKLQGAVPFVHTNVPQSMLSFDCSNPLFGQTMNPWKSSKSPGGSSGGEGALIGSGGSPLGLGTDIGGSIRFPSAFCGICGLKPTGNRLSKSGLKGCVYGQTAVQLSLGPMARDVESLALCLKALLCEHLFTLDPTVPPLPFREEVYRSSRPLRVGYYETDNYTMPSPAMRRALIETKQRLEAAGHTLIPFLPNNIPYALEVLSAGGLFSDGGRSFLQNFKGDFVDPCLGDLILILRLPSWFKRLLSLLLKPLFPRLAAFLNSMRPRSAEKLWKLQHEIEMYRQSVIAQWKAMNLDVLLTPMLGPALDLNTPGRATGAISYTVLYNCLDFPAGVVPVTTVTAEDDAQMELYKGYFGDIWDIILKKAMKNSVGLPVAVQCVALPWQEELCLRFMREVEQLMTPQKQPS
Procedure: A. Transfection of Cells with Rat FAAH
(§1) A 10-cm tissue culture dish with a confluent monolayer of SK—N-MC cells was split 2 days (d) prior to transfection. Using sterile technique, the media was removed and the cells were detached from the dish by the addition of trypsin. One fifth of the cells were then placed onto a new 10-cm dish. Cells were grown in a 37° C. incubator with 5% CO2 in Minimal Essential Media Eagle with 10% Fetal Bovine Serum. After 2 d, cells were approximately 80% confluent. These cells were removed from the dish with trypsin and pelleted in a clinical centrifuge. The pellet was re-suspended in 400 μL complete media and transferred to an electroporation cuvette with a 0.4 cm gap between the electrodes. Supercoiled rat FAAH cDNA (1 μg) was added to the cells and mixed. The voltage for the electroporation was set at 0.25 kV, and the capacitance was set at 960 μF. After electroporation, the cells were diluted into complete media (10 mL) and plated onto four 10-cm dishes. Because of the variability in the efficiency of electroporation, four different concentrations of cells were plated. The ratios used were 1:20, 1:10, and 1:5, with the remainder of the cells being added to the fourth dish. The cells were allowed to recover for 24 h before adding the selection media (complete media with 600 μg/mL G418). After 10 d, dishes were analyzed for surviving colonies of cells. Dishes with well-isolated colonies were used. Cells from individual colonies were isolated and tested.
The assay mixture consisted of 50 μL of the cell homogenate, 10 μL of the test compound, and 40 μL of anandamide [1-^3H-ethanolamine] (^3H-AEA, Perkin-Elmer, 10.3 Ci/mmol), which was added last, for a final tracer concentration of 80 nM. The reaction mixture was incubated at rt for 1 h. During the incubation, 96-well Multiscreen filter plates (catalog number MAFCNOB50; Millipore, Bedford, Mass., USA) were loaded with 25 μL of activated charcoal (Multiscreen column loader, catalog number MACL09625, Millipore) and washed once with 100 μL of MeOH. […] After the 1 h incubation, 60 μL of the reaction mixture were transferred to the charcoal plates, which were then assembled on top of the DYNEX plates using Centrifuge Alignment Frames (catalog number MACF09604, Millipore). The unbound labeled ethanolamine was centrifuged through to the bottom plate (5 min at 2000 rpm), which was preloaded with the scintillant, as described above. The plates were sealed and left at rt for 1 h before counting on a Hewlett Packard TopCount.

FAAH [1] = target: T2, FAAH (Homo sapiens, UniProt O00519); test: Assay Method 1B: FAAH assay, 3H-anandamide hydrolysis in cell homogenate (T84 or SK-N-MC cells transfected with human FAAH); type: biochemical; parameters: expressed in transfected cells; details: 3H-AEA 80 nM, rt 1 h, pH 9
T2 sequence (O00519 1-579): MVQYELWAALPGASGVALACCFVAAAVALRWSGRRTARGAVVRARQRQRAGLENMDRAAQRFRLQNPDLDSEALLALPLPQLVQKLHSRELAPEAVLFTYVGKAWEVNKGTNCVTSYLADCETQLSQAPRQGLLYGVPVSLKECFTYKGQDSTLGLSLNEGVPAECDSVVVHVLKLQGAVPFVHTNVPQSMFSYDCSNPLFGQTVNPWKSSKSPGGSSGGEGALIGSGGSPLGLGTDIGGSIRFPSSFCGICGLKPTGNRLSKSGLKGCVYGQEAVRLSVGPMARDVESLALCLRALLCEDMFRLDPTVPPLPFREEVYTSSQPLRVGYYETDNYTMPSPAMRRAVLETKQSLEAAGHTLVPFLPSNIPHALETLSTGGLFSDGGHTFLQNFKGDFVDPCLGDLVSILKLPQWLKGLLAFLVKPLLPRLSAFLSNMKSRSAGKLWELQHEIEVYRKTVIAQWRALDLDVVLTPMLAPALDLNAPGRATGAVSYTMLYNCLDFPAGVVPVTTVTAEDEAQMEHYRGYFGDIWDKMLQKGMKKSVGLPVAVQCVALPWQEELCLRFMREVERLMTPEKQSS
Procedure: as §1, with “Transfection of Cells with Human FAAH A 10-cm” for “A 10-cm”, “electrodes. Supercoiled human FAAH cDNA” for “electrodes. Supercoiled rat FAAH cDNA”, “and tested. […] The reaction mixture was incubated at rt for 1 h. During the incubation, 96-well Multiscreen filter plates (catalog number MAFCNOB50; Millipore, Bedford, Mass., USA) were loaded with 25 μL of activated charcoal (Multiscreen column loader, catalog number MACL09625, Millipore) and washed once with 100 μL of MeOH. Also during the incubation, 96-well DYNEX MicroLite plates (catalog number NL510410) were loaded with 100 μL of MicroScint40 (catalog number 6013641, Packard Bioscience, Meriden, Conn., USA). After the 1 h incubation, 60 μL of the reaction mixture were transferred to the charcoal plates, which were then assembled on top of the DYNEX plates using Centrifuge Alignment Frames (catalog number MACF09604, Millipore). The unbound labeled ethanolamine was centrifuged through to the bottom plate (5 min at 2000 rpm), which was preloaded with the scintillant, as described above. The plates were sealed and left at rt for 1 h before counting on a Hewlett Packard TopCount.” for “and tested.”

FAAH [2] = target: T3, FAAH (Rattus norvegicus, UniProt P97612); test: Assay Method 1A: FAAH enzyme assay, 14C-oleamide hydrolysis, solubilized liver plasma membrane extract;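 note: ki obtained by Dixon analysis, taking the x-intercept of inhibitor concentration versus reciprocal rate plots at fixed substrate level and correcting for substrate concentration relative to Km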
T3 sequence (P97612 1-579): T1 sequence (P97612 1-579)
Procedure: Linear least squares fits were used for all reaction progress curves and R^2 values were consistently >0.97. […] Ki values were determined by the Dixon Method (x-intercepts of weighted linear fits of [I] versus 1/rate plots at constant substrate concentration, which were converted to Ki values using the formula Ki=−xint/[1+[S]/Km]).

Row | SMILES | IC50 (Rat FAAH) [nM] | IC50 (FAAH [1]) [nM] | Ki (FAAH [2]) [nM]
1 | O=C(CCCCCCc1ccccc1)c1ncc(-c2ccc([N+](=O)[O-])cc2)o1 [Example 3, 1-(5-(4-Nitrophenyl)oxazol-2-yl)-7-phenylheptan-1-one] | 500 | 110 | –
2 | O=C(CCCCCCc1ccccc1)c1ncc(-c2cccc(C(=O)C(F)(F)F)c2)o1 [Example 5, 7-Phenyl-1-(5-(3-(2,2,2-trifluoroacetyl)phenyl)oxazol-2-yl)heptan-1-one] | 500 | 40 | –
3 | O=C(CCCCCCc1ccccc1)c1ncc(-c2ccc(C(=O)C(F)(F)F)cc2)o1 [Example 6, 7-Phenyl-1-(5-(4-(2,2,2-trifluoroacetyl)phenyl)oxazol-2-yl)heptan-1-one] | 1700 | 260 | –
4 | NC(=O)c1ccccc1-c1cnc(C(=O)CCCCCCc2ccccc2)o1 [Example 7, 2-(2-(7-Phenylheptanoyl)oxazol-5-yl)benzamide] | 1800 | 160 | –
5 | NC(=O)c1cccc(-c2cnc(C(=O)CCCCCCc3ccccc3)o2)c1 [Example 8, 3-(2-(7-Phenylheptanoyl)oxazol-5-yl)benzamide] | 34 | 12 | –
6 | NC(=O)c1ccc(-c2cnc(C(=O)CCCCCCc3ccccc3)o2)cc1 [Example 9, 4-(2-(7-Phenylheptanoyl)oxazol-5-yl)benzamide] | 60 | 10 | –
7 | O=C(CCCCCCc1ccccc1)c1ncc(-c2ccc(F)cc2)o1 [Example 12, 1-(5-(4-Fluorophenyl)oxazol-2-yl)-7-phenylheptan-1-one] | 1000 | 100 | –
8 | COc1ccccc1-c1cnc(C(=O)CCCCCCc2ccccc2)o1 [Example 13, 1-(5-(2-Methoxyphenyl)oxazol-2-yl)-7-phenylheptan-1-one] | – | 1900 | 400
9 | COc1ccc(-c2cnc(C(=O)CCCCCCc3ccccc3)o2)cc1 [Example 15, 1-(5-(4-Methoxyphenyl)oxazol-2-yl)-7-phenylheptan-1-one] | 4000 | 770 | –
10 | N#Cc1ccccc1-c1cnc(C(=O)CCCCCCc2ccccc2)o1 [Example 16, 2-(2-(7-Phenylheptanoyl)oxazol-5-yl)benzonitrile] | 2000 | 110 | –
11 | NS(=O)(=O)c1ccccc1-c1cnc(C(=O)CCCCCCc2ccccc2)o1 [Example 19, 2-(2-(7-Phenylheptanoyl)oxazol-5-yl)benzenesulfonamide] | – | 2000 | 1500
12 | COC(=O)c1ccnc(-c2cnc(C(=O)CCCCCCc3ccccc3)o2)c1 [Example 35, Methyl 2-(2-(7-phenylheptanoyl)oxazol-5-yl)isonicotinate] | – | – | 1
13 | O=C(CCCCCCc1ccccc1)c1ncc(-c2ncccc2C(=O)O)o1 [Example 40, 2-(2-(7-Phenylheptanoyl)oxazol-5-yl)nicotinic acid] | – | – | > 50
14 | Cc1cccc(-c2cnc(C(=O)CCCCCCc3ccccc3)o2)n1 [Example 41, 1-(5-(6-Methylpyridin-2-yl)oxazol-2-yl)-7-phenylheptan-1-one] | – | – | 3
15 | Cc1ccc(-c2cnc(C(=O)CCCCCCc3ccccc3)o2)nc1 [Example 42, 1-(5-(5-Methylpyridin-2-yl)oxazol-2-yl)-7-phenylheptan-1-one] | – | – | 3
16 | Cc1ccnc(-c2cnc(C(=O)CCCCCCc3ccccc3)o2)c1 [Example 43, 1-(5-(4-Methylpyridin-2-yl)oxazol-2-yl)-7-phenylheptan-1-one] | – | – | 1
17 | Cc1cccnc1-c1cnc(C(=O)CCCCCCc2ccccc2)o1 [Example 44, 1-(5-(3-Methylpyridin-2-yl)oxazol-2-yl)-7-phenylheptan-1-one] | – | – | 15
18 | COc1ccnc(-c2cnc(C(=O)CCCCCCc3ccccc3)o2)c1 [Example 45, 1-(5-(4-Methoxypyridin-2-yl)oxazol-2-yl)-7-phenylheptan-1-one] | – | – | 2
19 | N#Cc1ccnc(-c2cnc(C(=O)CCCCCCc3ccccc3)o2)c1 [Example 46, 2-(2-(7-Phenylheptanoyl)oxazol-5-yl)isonicotinonitrile] | – | – | 2
20 | O=C(CCCCCCc1ccccc1)c1ncc(-c2cc(C(F)(F)F)ccn2)o1 [Example 47, 7-Phenyl-1-(5-(4-(trifluoromethyl)pyridin-2-yl)oxazol-2-yl)heptan-1-one] | – | – | 4
21 | O=C(CCCCCCc1ccccc1)c1ncc(-c2cc([N+](=O)[O-])ccn2)o1 [Example 48, 1-(5-(4-Nitropyridin-2-yl)oxazol-2-yl)-7-phenylheptan-1-one] | – | – | 3
22 | Nc1ccnc(-c2cnc(C(=O)CCCCCCc3ccccc3)o2)c1 [Example 49, 1-(5-(4-Aminopyridin-2-yl)oxazol-2-yl)-7-phenylheptan-1-one] | – | – | 25
23 | COc1cc(-c2cnc(C(=O)CCCCCCc3ccccc3)o2)nc(OC)n1 [Example 51, 1-(5-(2,6-Dimethoxypyrimidin-4-yl)oxazol-2-yl)-7-phenylheptan-1-one] | – | – | 5
24 | COc1ncc(-c2cnc(C(=O)CCCCCCc3ccccc3)o2)c(OC)n1 [Example 53, 1-(5-(2,4-Dimethoxypyrimidin-5-yl)oxazol-2-yl)-7-phenylheptan-1-one] | – | – | 26
